The target of the experiment is human recombinant H-PGDS (Homo sapiens, UniProt O60760). The experiment can be described thus: Fluorescence intensity h-PGDS TBA enzyme assay. Format: biochemical. The following applies: Examples up to 622 (and 3a, 3b).

The term IC50 denotes the concentration needed to halve the response being measured.

human recombinant H-PGDS, sequence (O60760 whole entry): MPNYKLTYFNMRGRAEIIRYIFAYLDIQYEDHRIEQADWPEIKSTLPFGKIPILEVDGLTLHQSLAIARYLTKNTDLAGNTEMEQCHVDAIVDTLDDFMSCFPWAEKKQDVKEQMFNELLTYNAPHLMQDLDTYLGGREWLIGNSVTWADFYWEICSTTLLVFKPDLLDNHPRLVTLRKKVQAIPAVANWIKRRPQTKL

In the case of `Cc1nn(C(C)(C)C)c(C)c1CN1CCC(NC(=O)c2ccc(-c3cccc(F)c3)nc2)CC1` [Example 209, N-{1-[(1-tert-Butyl-3,5-dimethyl-1H-pyrazol-4-yl)methyl]piperidin-4-yl}-6-(3-fluorophenyl)nicotinamide], the IC50 was determined as 1.37 nM.
In the case of `O=C(NC1CCN(Cc2ccc(-n3cccn3)cc2)CC1)c1ccc(-c2cccc(F)c2)nc1` [Example 210, 6-(3-Fluorophenyl)-N-{1-[4-(1H-pyrazol-1-yl)benzyl]piperidin-4-yl}nicotinamide] it was 0.46 nM; in that of `COc1cccc(F)c1CN1CCC(NC(=O)c2ccc(-c3cccc(F)c3)nc2)CC1` [Example 211, N-[1-(2-Fluoro-6-methoxybenzyl)piperidin-4-yl]-6-(3-fluorophenyl)nicotinamide], 0.453 nM.
Under `COc1ccc(CC2CC(NC(=O)c3ccc(-c4cccc(F)c4)nc3)CCN2)cc1OC` (stereo not shown) [Example 212, N-[2-(3,4-Dimethoxybenzyl)piperidin-4-yl]-6-(3-fluorophenyl)nicotinamide] stands 1.4 nM; under `N#Cc1ccccc1CN1CCC(NC(=O)c2ccc(-c3cccc(F)c3)nc2)CC1` [Example 213, N-[1-(2-Cyanobenzyl)piperidin-4-yl]-6-(3-fluorophenyl)nicotinamide], 0.469 nM; under `CN(C)CCCOc1ccc(CN2CCC(NC(=O)c3ccc(-c4cccc(F)c4)nc3)CC2)cc1` [Example 214, N-(1-{4-[3-(Dimethylamino)propoxy]benzyl}piperidin-4-yl)-6-(3-fluorophenyl)nicotinamide], 5.55 nM.
In the case of `Cn1ccnc1CN1CCC(NC(=O)c2ccc(-c3cccc(F)c3)nc2)CC1` [Example 215, 6-(3-Fluorophenyl)-N-{1-[(1-methyl-1H-imidazol-2-yl)methyl]piperidin-4-yl}nicotinamide] it was 0.38 nM.
Turning to `O=C(NC1CCN(Cc2nccs2)CC1)c1ccc(-c2cccc(F)c2)nc1` [Example 216, 6-(3-Fluorophenyl)-N-[1-(1,3-thiazol-2-ylmethyl)piperidin-4-yl]nicotinamide], the IC50 was found to be 0.36 nM.
Under `CC(C)Oc1ccc(CN2CCC(NC(=O)c3ccc(-c4cccc(F)c4)nc3)CC2)cc1` [Example 217, 6-(3-Fluorophenyl)-N-[1-(4-isopropoxybenzyl)piperidin-4-yl]nicotinamide] stands 1.51 nM; under `O=C(NC1CCN(Cc2cc(F)c(F)cc2F)CC1)c1ccc(-c2cccc(F)c2)nc1` [Example 218, 6-(3-Fluorophenyl)-N-[1-(245-trifluorobenzyl)piperidin-4-yl]nicotinamide], 0.448 nM.
Consider `Cn1c(CN2CCC(NC(=O)c3ccc(-c4cccc(F)c4)nc3)CC2)nc2ccccc21` [Example 219, 6-(3-Fluorophenyl)-N-{1-[(1-methyl-1H-benzimidazol-2-yl)methyl]piperidin-4-yl}nicotinamide], for which the IC50 amounted to 0.749 nM.
In the case of `COc1ccc(CN2CCC(NC(=O)c3ccc(-c4cccc(F)c4)nc3)CC2)c(OC)c1` [Example 220, N-[1-(2,4-Dimethoxybenzyl)piperidin-4-yl]-6-(3-fluorophenyl)nicotinamide] it was 2.42 nM.
Under `O=C(NC1CCN(CC2CC=CCC2)CC1)c1ccc(-c2cccc(F)c2)nc1` (stereo not shown) [Example 221, N-[1-(Cyclohex-3-en-1-ylmethyl)piperidin-4-yl]-6-(3-fluorophenyl)nicotinamide] stands 0.446 nM; under `COc1ccc(CN2CCC(NC(=O)c3ccc(-c4cccc(F)c4)nc3)CC2)cc1` [Example 222, 6-(3-Fluorophenyl)-N-[1-(4-methoxybenzyl)piperidin-4-yl]nicotinamide], 6.64 nM; under `O=C(NC1CCN(Cc2cc(Br)ccc2O)CC1)c1ccc(-c2cccc(F)c2)nc1` [Example 223, N-[1-(5-Bromo-2-hydroxybenzyl)piperidin-4-yl]-6-(3-fluorophenyl)nicotinamide], 0.928 nM.
Under `COc1cccc(CN2CCC(NC(=O)c3ccc(-c4cccc(F)c4)nc3)CC2)c1` [Example 224, 6-(3-Fluorophenyl)-N-[1-(3-methoxybenzyl)piperidin-4-yl]nicotinamide] stands 0.342 nM; under `O=C(NC1CCN(Cc2ccc(Cl)cc2)CC1)c1ccc(-c2cccc(F)c2)nc1` [Example 225, N-[1-(4-Chlorobenzyl)piperidin-4-yl]-6-(3-fluorophenyl)nicotinamide], 2.48 nM; under `COc1ccc2[nH]cc(CN3CCC(NC(=O)c4ccc(-c5cccc(F)c5)nc4)CC3)c2c1` [Example 226, 6-(3-Fluorophenyl)-N-{1-[(5-methoxy-1H-indol-3-yl)methyl]piperidin-4-yl}nicotinamide], 1.42 nM.
Regarding `N#Cc1ccc(CN2CCC(NC(=O)c3ccc(-c4cccc(F)c4)nc3)CC2)cc1` [Example 227, N-[1-(4-Cyanobenzyl)piperidin-4-yl]-6-(3-fluorophenyl)nicotinamide], the IC50 is 0.815 nM.
In the case of `CCOc1ccc(CN2CCC(NC(=O)c3ccc(-c4cccc(F)c4)nc3)CC2)cc1OCC` [Example 228, N-[1-(3,4-Diethoxybenzyl)piperidin-4-yl]-6-(3-fluorophenyl)nicotinamide] it was 2.5 nM; in that of `CCOc1ccccc1CN1CCC(NC(=O)c2ccc(-c3cccc(F)c3)nc2)CC1` [Example 229, N-[1-(2-Ethoxybenzyl)piperidin-4-yl]-6-(3-fluorophenyl)nicotinamide], 0.509 nM.
Under `COc1cccc(CN2CCC(NC(=O)c3ccc(-c4cccc(F)c4)nc3)CC2)c1OC` [Example 230, N-[1-(2,3-Dimethoxybenzyl)piperidin-4-yl]-6-(3-fluorophenyl)nicotinamide] stands 0.53 nM.
For `COc1ccccc1CN1CCC(NC(=O)c2ccc(-c3cccc(F)c3)nc2)CC1` [Example 231, 6-(3-Fluorophenyl)-N-[1-(2-methoxybenzyl)piperidin-4-yl]nicotinamide], the IC50 amounted to 0.552 nM.
Under `Cc1c(CN2CCC(NC(=O)c3ccc(-c4cccc(F)c4)nc3)CC2)c(=O)n(-c2ccccc2)n1C` [Example 232, N-{1-[(1,5-Dimethyl-3-oxo-2-phenyl-2,3-dihydro-1H-pyrazol-4-yl)methyl]piperidin-4-yl}-6-(3-fluorophenyl)nicotinamide] stands 2.71 nM.
In the case of `O=C(NC1CCN(Cc2cccc(Cl)c2)CC1)c1ccc(-c2cccc(F)c2)nc1` [Example 233, N-[1-(3-Chlorobenzyl)piperidin-4-yl]-6-(3-fluorophenyl)nicotinamide] it was 0.352 nM.
In the case of `CCOc1ccc(CN2CCC(NC(=O)c3ccc(-c4cccc(F)c4)nc3)CC2)cc1` [Example 234, N-[1-(4-Ethoxybenzyl)piperidin-4-yl]-6-(3-fluorophenyl)nicotinamide] it was 1.65 nM; in that of `COc1ccc(CN2CCC(NC(=O)c3ccc(-c4cccc(F)c4)nc3)CC2)cc1C` [Example 235, 6-(3-Fluorophenyl)-N-[1-(4-methoxy-3-methylbenzyl)piperidin-4-yl]nicotinamide], 1.98 nM.
Regarding `O=C(NC1CCN(Cc2ccc(F)c(F)c2F)CC1)c1ccc(-c2cccc(F)c2)nc1` [Example 236, 6-(3-Fluorophenyl)-N-[1-(2,3,4-trifluorobenzyl)piperidin-4-yl]nicotinamide], the IC50 came out at 0.577 nM.
Under `O=C(NC1CCN(Cc2ccc(F)cc2F)CC1)c1ccc(-c2cccc(F)c2)nc1` [Example 237, N-[1-(2,4-Difluorobenzyl)piperidin-4-yl]-6-(3-fluorophenyl)nicotinamide] stands 0.698 nM; under `N#Cc1cccc(CN2CCC(NC(=O)c3ccc(-c4cccc(F)c4)nc3)CC2)c1` [Example 238, N-[1-(3-Cyanobenzyl)piperidin-4-yl]-6-(3-fluorophenyl)nicotinamide], 0.135 nM; under `O=C(NC1CCN(Cc2cc(F)ccc2F)CC1)c1ccc(-c2cccc(F)c2)nc1` [Example 239, N-[1-(2,5-Difluorobenzyl)piperidin-4-yl]-6-(3-fluorophenyl)nicotinamide], 0.245 nM.
In the case of `O=C(NC1CCN(Cc2cccc(F)c2F)CC1)c1ccc(-c2cccc(F)c2)nc1` [Example 240, N-[1-(2,3-Difluorobenzyl)piperidin-4-yl]-6-(3-fluorophenyl)nicotinamide] it was 0.181 nM.
Under `O=C(NC1CCN(Cc2ccc3c(c2)OCCO3)CC1)c1ccc(-c2cccc(F)c2)nc1` [Example 241, N-[1-(2,3-Dihydro-14-benzodioxin-6-ylmethyl)piperidin-4-yl]-6-(3-fluorophenyl)nicotinamide] stands 2.19 nM.
For the compound `Cn1cc(CN2CCC(NC(=O)c3ccc(-c4cccc(F)c4)nc3)CC2)c2ccccc21` [Example 242, 6-(3-Fluorophenyl)-N-{1-[(1-methyl-1H-indol-3-yl)methyl]piperidin-4-yl}nicotinamide], the IC50 was 0.781 nM.
In the case of `CC(=O)n1cc(CN2CCC(NC(=O)c3ccc(-c4cccc(F)c4)nc3)CC2)c2ccccc21` [Example 243, N-{1-[(1-Acetyl-1H-indol-3-yl)methyl]piperidin-4-yl}-6-(3-fluorophenyl)nicotinamide] it was 1.03 nM; in that of `O=C(NC1CCN(Cc2c(F)cccc2F)CC1)c1ccc(-c2cccc(F)c2)nc1` [Example 244, N-[1-(2,6-Difluorobenzyl)piperidin-4-yl]-6-(3-fluorophenyl)nicotinamide], 0.288 nM.
With `COc1ccc(CN2CCC(NC(=O)c3ccc(-c4cccc(F)c4)nc3)CC2)cc1Br` [Example 245, N-[1-(3-Bromo-4-methoxybenzyl)piperidin-4-yl]-6-(3-fluorophenyl)nicotinamide], the concentration for half-maximal inhibition (IC50) stood at 1.2 nM.
In the case of `O=C(NC1CCN(Cc2cnc3ccccc3c2)CC1)c1ccc(-c2cccc(F)c2)nc1` [Example 246, 6-(3-Fluorophenyl)-N-[1-(quinolin-3-ylmethyl)piperidin-4-yl]nicotinamide] it was 1.97 nM.
In the case of `COc1ccc(CN2CCC(NC(=O)c3ccc(-c4cccc(F)c4)nc3)CC2)cc1F` [Example 247, N-[1-(3-Fluoro-4-methoxybenzyl)piperidin-4-yl]-6-(3-fluorophenyl)nicotinamide] it was 0.653 nM.
In the case of `O=C(NC1CCN(Cc2cc(F)cc(F)c2)CC1)c1ccc(-c2cccc(F)c2)nc1` [Example 248, N-[1-(3,5-Difluorobenzyl)piperidin-4-yl]-6-(3-fluorophenyl)nicotinamide] it was 1.05 nM.
